# Test system: TNFα release from human monocytic cell line, U937
# Test: inhibition of TNFα release from PMA-stimulated human monocytic cell line U937 (18 h, ELISA)
# Assay type: cell-based
# Conditions: U-937, PMA 50 nM, U937 cells, 18 hours at 37° C., reported by Group A/B/C, read-out: IC50 (concentration which inhibits the release of TNFα by 50% relative to the control culture)
# Description: Metalloproteinase inhibitors can prevent the release of TNF from PMA-stimulated human monocytic cell line U937.
# The ability of representative compounds, which are inhibitors of metalloproteinases, to inhibit the release of TNF was investigated. The assay is based on the ability of phorbol myristate acetate (PMA) to stimulate the release of TNFα from a human monocytic cell line, U937.
# U937 cells cultured in RPMI 1640 medium +5% foetal calf serum were centrifuged at 1000×g for 5 minutes and then resuspended in medium at 2×10^6 /ml. 1 ml of cell suspension was aliquoted into individual wells of 24-well plates. Test compounds were dissolved in dimethyl sulphoxide (DMSO) at a stock concentration of 100 mM, then diluted to 50×the final required concentration with RPMI 1640 medium. 20 μl of the diluted compounds were added to U937 cells in duplicate wells. TNFα release was stimulated by addition of PMA to the cells at a final concentration of 50 nM. Appropriate control cultures were set up in duplicate. The plates were incubated for 18 hours at 37° C., 5% CO2, then centrifuged at 1000 ×g for 5 minutes. A specific ELISA for TNFα obtained from British Bio-technology Products Limited, Abingdon, England was used to measure TNFα levels in the culture supernatants according to the protocol supplied.
# The average concentration of test compound which inhibits the release of TNFα by 50% relative to the control culture was assessed as greater than 90 μM, in the range 10 μM-90 μM, or less than 10 μM.
row,SMILES,IC50 [µM]
1,"CNC(=O)[C@H](Cc1ccc(OC)cc1)NC(=O)[C@@H](CC(C)C)[C@H](C)C(=O)NO [Compound 69, 3S-(2(4-methoxyphenyl)-1S-methylcarbamoyl-ethylcarbamoyl)-2S,5-dimethyl-hexanohydroxamic acid]",10 to 90
2,"CNC(=O)[C@H](Cc1ccccc1)NC(=O)[C@H](CC(C)C)[C@H](CSc1cccs1)C(=O)NO [Compound 3, 2S-(thien-2-ylsulfanylmethyl)-3R-(2-phenyl-1S-methylcarbamoyl-ethylcarbamoyl)-5-methyl-hexanohydroxamic acid]",< 10
3,"CNC(=O)[C@H](Cc1ccccc1)NC(=O)[C@H](CC(C)C)[C@H](CSc1ccccc1)C(=O)NO [Compound 2, 2S-(phenylsulfanylmethyl)-3R-(2-phenyl-1S-methylcarbamoyl-ethylcarbamoyl)-5-methyl-hexanohydroxamic acid]",< 10
4,"CC(C)C[C@H](CC(=O)NO)C(=O)NC1Cc2ccccc2NC1=O (stereo partly drawn) [Compound 101, 3R-(2-oxo-1,2,3,4-tetrahydro-quinoli-3-ylcarbamoyl)-5-methyl-hexanohydroxamic acid]",> 90
5,"CNC(=O)[C@H](Cc1ccc(OC)cc1)NC(=O)[C@@H](CC(=O)NO)CC(C)C [Compound 70, 3R-(2(4-methoxyphenyl)-1S-methylcarbamoyl-ethylcarbamoyl)-5-methyl-hexanohydroxamic acid]",10 to 90
6,"CNC(=O)[C@H](Cc1ccc(OC)cc1)NC(=O)[C@H](CC(C)C)[C@H](C)C(=O)NO [Compound 1, 3R-(2-(4-methoxyphenyl)-1S-methylcarbamoyl-ethylcarbamoyl)-2S,5-dimethyl-hexanohydroxamic acid]",< 10
7,"COc1ccc(C[C@H](NC(=O)[C@@H](CC(=O)NO)CC(C)C)C(=O)N(C)C)cc1 [Compound 100, 3R-(2-(4-methoxyphenyl)-1S-dimethylcarbamoyl-ethylcarbamoyl)-5-methyl-hexanohydroxamic acid]",> 90

# Test system: TNF α
# Test: inhibition of endotoxin (LPS) induced TNF production in vivo in anaesthetised rats
# Parameters: species or system Male CD rats
# Conditions: rat, 10 mg.kg^-1 intraperitoneally, 1 hour prior to LPS
# Description: Test compounds were assessed for their ability to inhibit release of endotoxin induced TNF production in vivo.
# (§1) Male CD rats (Charles River, UK) weighing between 300 g-400 g were anaesthetised with an intra-peritoneal injection of a mixture of 62.5 mg.kg^-1 thiopental and 22.5 mg.kg^-1 sodium pentobarbitone (Thiopental, Sigma Chemical Co., UK; Sodium pentobarbitone (Sagatal), May and Baker., UK). The trachea was exposed and cannulated to allow spontaneous respiration through a patent airway. The left jugular vein was exposed and cannulated for the administration of LPS. The right femoral artery was exposed and cannulated for withdrawal of blood samples. Blood samples (1 ml) were removed 5 minutes prior to bolus administration of either LPS (E. coil serotype 0111:b4, Difco Laboratories, USA) or saline (NaCL 0.9% w/v) and at intervals of 1 hour and 2 hours after LPS. Removed blood was replaced with equal amounts of saline.
# The peak of TNF release was at the 1 hour timepoint. TNF levels were expressed in units/ml where 1 unit is the equivalent of 1 pg of mouse TNF α.
# (§2) Rat serum TNF levels were measured using a mouse TNF α reference standard. The commercial ELISA kits were from Genzyme.
# Test compounds were administered intraperitoneally to anaesthetised rats at a dose of 10 mg.kg^-1, 1 hour prior to LPS administration.
# The results are expressed as the % inhibition of maximal TNF elevation relative to control: […]
row,SMILES,% Inhibition of Maximal TNF Elevation relative to control [%]
1,"CCOC(=O)CNC(=O)[C@H](CC(C)C)NC(=O)[C@H](CC(C)C)[C@H](CCCCN1C(=O)c2ccccc2C1=O)C(=O)NO [Compound 93, 2S-(4-phthalimido-butyl)-3R-(3-methyl-1S-ethoxycarbonylmethylcarbamoyl-butylcarbamoyl)-5-methyl-hexanohydroxamic acid]",43
2,"CNC(=O)[C@H](Cc1ccc(OC)cc1)NC(=O)[C@@H](CC(=O)NO)CC(C)C [Compound 70, 3R-(2(4-methoxyphenyl)-1S-methylcarbamoyl-ethylcarbamoyl)-5-methyl-hexanohydroxamic acid]",37
3,"CNC(=O)[C@H](Cc1ccc(NC(C)=O)cc1)NC(=O)[C@@H](CC(=O)NO)CC(C)C [Compound 23, 3R-(2-(4-acetamidophenyl)-1S-methylcarbamoyl-ethylcarbamoyl)-5-methyl-hexanohydroxamic acid]",35
4,"CNC(=O)[C@@H](NC(=O)[C@@H](CC(=O)NO)CC(C)C)C(C)(C)C [Compound 88, 3R-(2,2-dimethyl-1S-methylcarbamoyl-propylcarbamoyl)-5-methyl-hexanohydroxamic acid]",66
5,"CNC(=O)[C@H](Cc1ccc(OC)cc1)NC(=O)[C@H](CC(C)C)[C@H](C)C(=O)NO [Compound 1, 3R-(2-(4-methoxyphenyl)-1S-methylcarbamoyl-ethylcarbamoyl)-2S,5-dimethyl-hexanohydroxamic acid]",0
6,"CNC(=O)[C@H](Cc1ccccc1)NC(=O)[C@H](CCc1ccccc1)CC(=O)NO [Compound 87, 3R-(2-phenyl-1S-methylcarbamoyl-ethylcarbamoyl)-5-phenyl-pentanohydroxamicacid]",4
7,"CC(C)C[C@H](CC(=O)NO)C(=O)N[C@@H](Cc1ccccc1)C(=O)NCc1cccnc1 [Compound 98, 3R-(2-phenyl-1S-[pyrid-3-ylmethylcarbamoyl]-ethylcarbamoyl)-5-methyl-hexanohydroxamic acid]",28
8,"CC(C)C[C@H](CC(=O)NO)C(=O)N[C@@H](Cc1ccccc1)C(=O)NCCCN1CCCC1=O [Compound 74, 3R-(2-phenyl-1S-[2-oxo-pyrolid-1-yl]propylcarbamoyl-ethylcarbamoyl)-5-methyl-hexanohydroxamic acid]",28
9,"CNC(=O)[C@H](Cc1ccccc1)NC(=O)[C@H](CC(C)C)[C@H](CS(=O)(=O)c1cccs1)C(=O)NO [Compound 99, 2S-(thien-2-ylsulfonylmethyl)-3R-(2-phenyl-1S-methylcarbamoyl-ethylcarbamoyl)-5-methyl-hexanohydroxamic acid]",55

# Test system: TNF α
# Test: variation: infusion of compound before LPS, inhibition of TNF elevation in vivo
# Parameters: species or system Male CD rats
# Conditions: rat, infusion 1 mg/kg/hr, 15 minutes prior to LPS 500 μg.kg^-1, for 2 hours
# Description: as §1, §2
row,SMILES,inhibition of maximal TNF elevation relative to control [%]
1,"CNC(=O)[C@H](Cc1ccc(OCC(=O)O)cc1)NC(=O)[C@H](CC(C)C)[C@H](CSc1cccs1)C(=O)NO [Compound 29, 2S-(thien-2-ylsulphanylmethyl)-3R-(2-(4-carboxymethoxyphenyl)-1S-methylcarbamoyl-ethylcarbamoyl)-5-methyl-hexanohydroxamic acid]",60

# — patent US5691382A, “Inhibition of TNF production with matrix metaloproteinase inhibitors” (British Biotech Pharmaceuticals Limited, priority 1992, dated 1997)
